Consider eleven molecules from US20240398828A1, “HETERO-ATOM CONTAINING COMPOUNDS AND USES THEREOF” (Kumquat Biosciences Inc., priority 2021, published 2024).

Molecules are shown by their SMILES.

The IC50 is the concentration that inhibits the measured activity by half.

For one test, the target named is T1, PTPN2 (i.e., TC-PTP) (Homo sapiens, UniProt P17706).
T1 sequence (P17706 1-415): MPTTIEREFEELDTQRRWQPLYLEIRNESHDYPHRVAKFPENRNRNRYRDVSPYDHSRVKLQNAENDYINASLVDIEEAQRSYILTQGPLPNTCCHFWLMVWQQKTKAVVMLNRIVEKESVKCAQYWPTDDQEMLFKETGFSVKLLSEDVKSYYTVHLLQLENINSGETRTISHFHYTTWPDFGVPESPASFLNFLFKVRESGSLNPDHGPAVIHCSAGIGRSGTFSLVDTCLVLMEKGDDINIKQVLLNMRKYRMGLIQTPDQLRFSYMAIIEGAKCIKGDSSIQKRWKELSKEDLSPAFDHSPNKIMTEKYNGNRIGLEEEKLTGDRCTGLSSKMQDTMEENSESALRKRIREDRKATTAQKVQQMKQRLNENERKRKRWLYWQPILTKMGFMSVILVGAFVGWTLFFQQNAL
In words: Phosphatase activity assay (DiFMUP substrate), PTPN2. The format is biochemical. The note with it: compounds binned ≤1 uM or >1 uM. The method in brief:
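Using a Km-level DiFMUP substrate and 0.025 ng/ul PTPN2, phosphatase activity is tracked by DiFMU emission at 450 nm over about 15–30 minutes. Initial rates at ten inhibitor concentrations give IC50 by four-parameter fitting.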

The target in the next test is T2, PTPN1 (i.e., PTP1B) (Homo sapiens, UniProt P18031).
T2 sequence (P18031 1-435): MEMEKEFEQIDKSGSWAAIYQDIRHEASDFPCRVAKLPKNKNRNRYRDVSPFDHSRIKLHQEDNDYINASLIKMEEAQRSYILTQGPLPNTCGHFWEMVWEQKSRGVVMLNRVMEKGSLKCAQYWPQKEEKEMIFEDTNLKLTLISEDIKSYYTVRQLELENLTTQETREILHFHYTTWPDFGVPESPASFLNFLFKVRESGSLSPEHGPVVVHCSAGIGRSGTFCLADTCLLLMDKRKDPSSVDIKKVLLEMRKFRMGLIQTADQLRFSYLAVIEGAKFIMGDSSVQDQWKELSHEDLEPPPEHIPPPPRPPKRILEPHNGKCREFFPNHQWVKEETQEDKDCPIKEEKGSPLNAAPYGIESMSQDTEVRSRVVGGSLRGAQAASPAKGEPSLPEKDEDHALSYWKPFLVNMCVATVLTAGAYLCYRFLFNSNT
The test is described as follows: Phosphatase activity assay (DiFMUP substrate), PTP1B. Conditions: compounds binned ≤1 uM or >1 uM. The format is biochemical. Summed up: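 RT, HEPES pH 7.5 buffer with DTT/Tween-20. 10-point inhibitor series premixed ~2 min with enzyme (PTPN2 0.025 ng/ul). Start with DiFMUP at enzyme Km (~45 μM for PTPN2). Read DiFMU ex360/em450 continuously 15–30 min; initial rate vs concentration, 4-parameter fit → IC50.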

Turning to `O=C1CN(c2c(O)ccc(C3=CCN(C4CC4)C3)c2F)S(=O)(=O)N1` [Compound 296, 5-(3-(1-cyclopropyl-2,5-dihydro-1H-pyrrol-3-yl)-2-fluoro-6-hydroxyphenyl)-1,2,5-thiadiazolidin-3-one 1,1-dioxide], the half-maximal inhibitory concentration (IC50) at PTPN2 (i.e., TC-PTP) was not above 1 µM; on PTPN1 (i.e., PTP1B), not above 1 µM.

Turning to `O=C1CN(c2c(O)ccc(-c3c[nH]c(CCC4CC4)c3)c2F)S(=O)(=O)N1` [Compound 257, 5-(3-(5-(2-cyclopropylethyl)-1H-pyrrol-3-yl)-2-fluoro-6-hydroxyphenyl)-1,2,5-thiadiazolidin-3-one 1,1-dioxide], the IC50 on PTPN2 (i.e., TC-PTP) was not above 1 µM; at PTPN1 (i.e., PTP1B), not above 1 µM.

Turning to `O=C1CN(c2c(O)ccc(-c3nnc(C4CC4)[nH]3)c2F)S(=O)(=O)N1` [Compound 235, 5-(3-(5-cyclopropyl-4H-1,2,4-triazol-3-yl)-2-fluoro-6-hydroxyphenyl)-1,2,5-thiadiazolidin-3-one 1,1-dioxide], the IC50 at PTPN2 (i.e., TC-PTP) is not above 1 µM; at PTPN1 (i.e., PTP1B), not above 1 µM.

Take `O=C1CN(c2c(O)ccc(-c3cc(C4CC4(F)F)n(CC(F)F)n3)c2F)S(=O)(=O)N1` (stereo not shown) [Compound 508, 5-(3-(5-(2,2-difluorocyclopropyl)-1-(2,2-difluoroethyl)-1H-pyrazol-3-yl)-2-fluoro-6-hydroxyphenyl)-1,2,5-thiadiazolidin-3-one 1,1-dioxide]: the IC50 at PTPN2 (i.e., TC-PTP) was not above 1 µM; on PTPN1 (i.e., PTP1B), not above 1 µM.

Regarding `O=C1CN(c2c(O)ccc(-c3cnn(CC4CCOCC4)c3)c2F)S(=O)(=O)N1` [Compound 171, 5-(2-fluoro-6-hydroxy-3-(1-((tetrahydro-2H-pyran-4-yl)methyl)-1H-pyrazol-4-yl)phenyl)-1,2,5-thiadiazolidin-3-one 1,1-dioxide], the IC50 was not above 1 µM at PTPN2 (i.e., TC-PTP) and not above 1 µM on PTPN1 (i.e., PTP1B).

Consider `CCn1nc(-c2ccc(O)c(N3CC(=O)NS3(=O)=O)c2F)cc1C1CC1(F)F` (stereo not shown) [Compound 494, 5-(3-(5-(2,2-difluorocyclopropyl)-1-ethyl-1H-pyrazol-3-yl)-2-fluoro-6-hydroxyphenyl)-1,2,5-thiadiazolidin-3-one 1,1-dioxide], for which the IC50 was not above 1 µM at PTPN2 (i.e., TC-PTP) and not above 1 µM on PTPN1 (i.e., PTP1B).

With `Cn1nc(-c2ccc(O)c(N3CC(=O)NS3(=O)=O)c2F)cc1N` [Compound 529, 5-(3-(5-amino-1-methyl-1H-pyrazol-3-yl)-2-fluoro-6-hydroxyphenyl)-1,2,5-thiadiazolidin-3-one 1,1-dioxide], the IC50 on PTPN2 (i.e., TC-PTP) is not above 1 µM; at PTPN1 (i.e., PTP1B), not above 1 µM.

Regarding `O=C1CN(c2c(O)ccc(-c3c[nH]cn3)c2F)S(=O)(=O)N1` [Compound 158, 5-(2-fluoro-6-hydroxy-3-(1H-imidazol-4-yl)phenyl)-1,2,5-thiadiazolidin-3-one 1,1-dioxide], the IC50 is not above 1 µM on PTPN2 (i.e., TC-PTP) and not above 1 µM at PTPN1 (i.e., PTP1B).

For `Cn1nc(-c2ccc(O)c(N3CC(=O)NS3(=O)=O)c2F)cc1CCC#N` [Compound 432, 3-(3-(3-(1,1-dioxido-4-oxo-1,2,5-thiadiazolidin-2-yl)-2-fluoro-4-hydroxyphenyl)-1-methyl-1H-pyrazol-5-yl)propanenitrile], the IC50 on PTPN2 (i.e., TC-PTP) was not above 1 µM; on PTPN1 (i.e., PTP1B) it was not above 1 µM.

Consider `O=C1CN(c2c(O)ccc(-c3cnn(Cc4ccncc4)c3)c2F)S(=O)(=O)N1` [Compound 174, 5-(2-fluoro-6-hydroxy-3-(1-(pyridin-4-ylmethyl)-1H-pyrazol-4-yl)phenyl)-1,2,5-thiadiazolidin-3-one 1,1-dioxide], for which the IC50 on PTPN2 (i.e., TC-PTP) is not above 1 µM; at PTPN1 (i.e., PTP1B) it was not above 1 µM.

Turning to `O=C1CN(c2c(O)ccc(-c3cnn(CC4CC5CCC(C4)O5)c3)c2F)S(=O)(=O)N1` (stereo not shown) [Compound 422, 5-(3-(1-((8-oxabicyclo[3.2.1]octan-3-yl)methyl)-1H-pyrazol-4-yl)-2-fluoro-6-hydroxyphenyl)-1,2,5-thiadiazolidin-3-one 1,1-dioxide], the half-maximal inhibitory concentration (IC50) is not above 1 µM at PTPN2 (i.e., TC-PTP) and not above 1 µM at PTPN1 (i.e., PTP1B).
